In patent publication US20260235624A1, “PEPTIDES AND THEIR LABELLED DERIVATIVES SUITABLE FOR USE IN THE DIAGNOSIS OF DIABETES OR ITS COMPLICATIONS” (Instytut Medycyny Doswiadczalnej i Klinicznej im. Miroslawa …, priority 2023, published 2026):

What was measured:
ADAM17 = experiment: Hydrolysis of the ADAM17 substrate in urine samples, increase in fluorescence; type: biochemical, human; conditions: control urine samples Z1-Z10 (healthy subjects); 20 μL of 45 μM substrate, buffer pH 9.0, 37° C., 30 minutes, triplicate
Procedure: (§1) 20 μL of a 45 μM substrate solution of the peptide of the invention or its labelled derivative were mixed with 100 μL of the measurement buffer (25 mM Tris-Cl, 2.5 μM ZnCl2 and 0.005% Brij-35, pH 9.0) and 80 μL of test urine from a patient diagnosed with diabetes or a healthy person (control).
(§2) When fluorescently labelled derivatives were used, measurements were carried out in triplicate in a 96-well plate using a CLARIOStar plate reader (BMG Labtech, Ortenberg, Germany) at 37° C. for 30 minutes. After this time, the measurement was finished and the increase in fluorescence was determined. If a fluorescence increase of more than 0.0001 U/sec was obtained, the urine sample tested was considered to originate from a person with diabetes.

ADAM10 = experiment: Hydrolysis of the ADAM10 substrate in urine samples, increase in fluorescence; type: biochemical, human; conditions: control urine samples Z1-Z10 (healthy subjects); 20 μL of 45 μM substrate, buffer pH 9.0, 37° C., 30 minutes, triplicate
Procedure: as §1, §2

| Substance | Increase in concentration of labelled degradation products in the urine sample, Mean (ADAM17) | Increase in concentration of labelled degradation products in the urine sample, Mean (ADAM10) |
| --- | --- | --- |
| ABZ-Asn-Tyr-Met-Ala-Leu-Arg-Arg-Tyr(3-NO2)—NH2 | 0.000000 | – |
| ABZ-Lys-Ile-Ile-Asn-Leu-Lys-Arg-Tyr(3-NO2)—NH2 | – | 0.000000 |
